From patent publication US8883856B2, “Compositions and methods for the treatment of inflammatory diseases using topoisomerase inhibitors” (priority 2000, dated 2014)
≈ marks a conversion by molar mass, not a printed value. Like-named read-outs stand apart in the source and are kept apart here.

Tests used:
[1] = system: human neutrophils; assay: Neutrophil chemiluminescence (neutrophil activation); format: cell-based; conditions: Homo sapiens, Neutrophil; activation by MSUM crystals; read-out: IC 50, inhibition of neutrophil chemiluminescence
Protocol: Freshly prepared human neutrophils were incubated with the compound followed by stimulation of the cells with either plasma opsonized CPPD crystals, the bacterial chemoattractant, fMLP or the phorbol ester, PMA. Stimulation (or activation) of the cells induced superoxide anion generation which could be measured by the emission of light (chemiluminescence). Inhibition of neutrophil function was then determined by inhibition of chemiluminescence. Hanks buffered salt solution (HBSS) pH 7.4 was used throughout the study. All chemicals were purchased from Sigma Chemical Co. (St. Louis, Mo.) unless otherwise stated. All procedures were performed at 37° C. unless otherwise stated. CPPD (triclinic) crystals were prepared and characterized as previously reported (Jackson J K et al., J Rheumatol, 24: 341-348, 1996). The size distribution of the crystals was approximately 33% less than […]. Opsonization of crystals was carried out using 50% heparinized plasma and concentrations of 50 mg of CPPD in 1 mL of 50% plasma. Crystals were incubated with diluted plasma for 30 min at 37° C., centrifuged at 1000×g, then washed in HBSS and recentrifuged. Neutrophils were prepared from freshly collected, human, citrated whole blood. Briefly, 400 mL of blood were mixed with 80 mL of 4% dextran T500 (Pharmacia LKB, Biotechnology AB Uppsala, Sweden) in HBSS and allowed to settle for 1 h. Plasma was collected continuously and 5 mL applied to 5 mL Ficoll Paque (Pharmacia) in 15 mL polypropylene tubes (Corning, N.Y.). Following centrifugation at 500×g for 30 min, the neutrophil pellets were washed free of erythrocytes by 20 s of hypotonic shock. Neutrophils were resuspended in HBSS, kept on ice and used for experiments within 3 h. Neutrophil viability and purity was always greater than 90%.
A stock solution of drug was diluted in DMSO to give various concentrations of drug. Equal volumes of these solutions were added to neutrophils at 5×10^6 cells per mL under mild vortexing to achieve final concentrations with a final DMSO concentration of 0.25%. This DMSO concentration found to have no effect on control cell responses. Cells were incubated for 15 minutes at 37° C. before addition to crystals, fMLP or PMA.
Chemiluminescence studies were performed at a cell concentration of 5×10^6 cells per mL in HBSS with CPPD (50 mg/mL). In all experiments 0.5 mL of cells were added to 25 mg of CPPD or 1 uM fMLP (and 0.5 uM cytochalasin B) or 0.5 uM PMA in 1.5 ml Eppendorf tubes. To the tubes were added 10 uL of luminol dissolved in 25% DMSO in HBSS to give a final concentration of 1 μM and the samples were mixed to initiate neutrophil activation. Chemiluminescence was monitored using an LKB Luminometer (Model 1250) at 37° C. with shaking immediately prior to measurements to resuspend the crystals. Control tubes contained cells, drug and luminol (crystals absent).

[2] = system: synoviocytes (HIG.82 rabbit); assay: MTT proliferation/cytotoxicity assay, synoviocytes; format: cell-based; conditions: Oryctolagus cuniculus, 48 h, read-out: inhibitory concentration that gave 50% effect on proliferation (IC50), synoviocytes
Protocol: (§1) Proliferation was determined using the MTT proliferation/cytotoxicity assay.
(§2) On day one, 1500-2000 smooth muscle cells (A7r5 rat embryonic thoracic aorta) or synoviocytes (HIG.82 rabbit) were plated per well on a 96-well plate, leaving the first column free of cells (blank). The plate was placed back into the 37° C., CO2 incubator. The following day camptothecin was added at various concentrations. No drugs were added to the first column (blank) and the second column (untreated column) for control. The cells were exposed for 24, 48, and 72 hours. At the end of the exposure period, 50 μl of dimethylthiazol diphenyltetrazolium bromide salt (MTT) dissolved in media was added and allowed to incubate for 4 hours at 37° C. The medium was then aspirated and 200 μl of dimethyl sulfoxide was added. The plate was agitated for 30 minutes and the absorbance read at 562 nm. The optical density measurement was converted to number of cells using a standard plot of optical density with known number of cells and cell viability was expressed as % growth (this value is the % of the control cells).

[3] = system: smooth muscle cells (A7r5 rat embryonic thoracic aorta); assay: MTT proliferation/cytotoxicity assay, smooth muscle cells; format: cell-based; conditions: A7R5, 48 h, read-out: inhibitory concentration that gave 50% effect on proliferation (IC50), smooth muscle cells
Protocol: as §1, §2

[4] = system: caspase 3; assay: Caspase 3 activation in neutrophils (caspACE assay system); format: cell-based, human
From the text: (§3) The inflammation associated with many forms of arthritis is thought to arise from the presence of large numbers of immune cells, such as neutrophils, in the synovial joints of humans. The extended inflammation associated with crystal induced arthritis arises from the interaction of neutrophils with crystals in the synovial joint. One reason the extended duration of the inflammation in this disease may be due to the inhibition of neutrophil apoptosis by crystals. This inhibition may result in the neutrophils remaining in the joint for extended periods. Compounds that overcome this crystal induced suppression of neutrophil apoptosis therefore allow the more rapid clearance of these cells from the joint with the appropriate abatement of inflammation. The process of apoptosis involves the endonuclease driven cleavage of DNA into fragments which may be visualized as a ladder of bands in an agarose gel electrophoresis experiment. Other assays that may be used include caspase 3 quantitation or measurements of cytoplasmic DNA concentration. […] Agents that inhibit caspase activation levels or reduce cytoplasmic DNA are pro-survival (potentially inflammatory) and agents that promote are pro-apoptotic and anti-inflammatory. The use of these methods and their role in neutrophil affected inflammation is described in detail in Tudan et al. J Rheumatol. 27 p 2463-72. 2000.
(§4) Methods: Agarose gel banding/laddering of 180 base pairs: Neutrophils were separated from fresh human blood by standard methods (dextran sedimentation and ficoll paque centrifugation) and suspended in buffer at a concentration of 1×10^6 cells/ml. The cells were then incubated with crystals of calcium pyrophosphate dihydrate (CPPD) for 1 hours at 37° C. The cells were then incubated with or without camptothecin (0.1 uM) for 4 hours at 37° C. Neutrophil aliquots (1×10^6 cells) from different conditions were resuspended in 480 μl of lysis buffer (0.6% SDS, 10 mM Tris, 1 mM EDTA (pH 7.0)) and after vigorous mixing were allowed to sit on ice for 20 min after addition of 120 μl of 5M NaCl. In caspase 3 and DNA fragmentation assays a milder detergent (Triton) was used to lyse only the plasma membrane of the cells so that cytoplasmic contents (caspase 3 or DNA fragments) could be assayed. Samples were sedimented at 14,000 rpm at 4° C. for 20 min. The pellet was dried and resuspended in phenol:chloroform. Four hundred fifty μl of the upper phase was added to a new tube, which was then charged with 950 μl of […] and held at −20° C. for 10 min. The DNA was sedimented at 14,000 rpm (4° C.) and carefully washed in 75% ethanol without disturbing the pellet. The DNA was dried at 37° C. and then resuspended in 20 μl sample buffer (50% TBE with 1 μl of 1 ng/ml RNase A (Pharmacia)). The samples were vortexed and allowed to stand at 37° C. for 10 min. Five μl of loading dye (20% Ficoll Paque (Pharmacia), 0.1% bromophenol blue, 0.1% xylene cyanole) was added. Electrophoresis was carried out in 2% agarose at 80 mA, and the gel was then stained with ethidium bromide (Pharmacia) and photographed under U.V. illumination.
Caspase 3 activation was assayed using a commercial kit for this enzyme (caspACE assay system, Promega Scientific) and cyotplasmic DNA was assayed using a commercial kit (Cell death detection ELISA-Boehringer—Mannheim).

[5] = system: neutrophils; assay: Cytoplasmic DNA fragmentation in neutrophils (Cell death detection ELISA); format: cell-based, human
From the text: as §3
as §4, with “The samples were vortexed and allowed to stand at 37° C. for 10 min. Five μl of loading dye (20% Ficoll Paque (Pharmacia), 0.1% bromophenol blue, 0.1% xylene cyanole) was added. Electrophoresis was carried out in 2% agarose at 80 mA, and the gel was then stained with ethidium bromide (Pharmacia) and photographed under U.V. illumination.” left out

[6] = system: surgical adhesions; format: in vivo; conditions: drug-loaded crosslinked HA films (camptothecin 2.5%, doxorubicin 2.5%, beta-lapachone 5%, curcumin 10%), rats
Protocol: The rat caecal-sidewall adhesion model was used to test efficacy of crosslinked hyaluroinc acid (HA) polymeric films loaded with one of the following compounds; camptothecin 2.5% loading (w/w to polymer), curcumin 10%, doxorubicin 2.5%, beta-lapachone at 5% or unloaded-no-drug control. Films of 2-2.5 cm^2 were prepared with each drug by the method described in example 10. ETO sterilized, and divided in half at the time of surgical implantation. Sham surgeries omitted the application of HA film as separate controls.
Sprague Dawley rats, 15 male and 15 female, weighing 250-400 g were anaesthetized with Halothane (5%) and maintained, by nose cone, on 1.5-2% Halothane. Surgeries were conducted under sterile conditions. The abdomen was shaved, scrubbed with an antiseptic wash, and opened at the linea alba with a 3 cm incision. A region of the abdominal cavity immediately opposite the large bowel was isolated with bowel clamps, and a #11 scalpel blade was used to score a section of the transversus muscle, describing a rectangle 1×1.5 cm. The muscle was stripped from the peritoneal sidewall with forceps, and minor bleeding was arrested by tamponade. The large bowel was then externalized with sterile swabs, and caecal contents evacuated into the large bowel. Both surfaces of the caecum were stroked, 45 times on each side, with a #10 scalpel blade to produce erythema and punctated bleeding. Each stroke spanned the caecal diameter (approximately 1 cm), and extended along 1.5 cm of the caecal extremity. In only one case did this abrasion procedure cause sustained bleeding requiring ligation. Following 90 blade strokes, the integrity of the tissue was confirmed, and caecum and large bowel were replaced in the pelvis.
The film was laid over the rectangular sidewall abrasion (except in the case of sham surgeries), covering the area of damaged tissue. The abraded caecum, relocated in its previous orientation, was than overlaid such that the entire sidewall wound and film were covered by it. Four tacking sutures were placed at the outer extremities of the abraded area of the caecum securing it to the intact peritoneal sidewall immediately outside the rectangular wound area. The abdomen was closed in two layers, and antibiotics administered intramuscularly before the animal regained consciousness.
. Adhesions over, and adjacent to the caecum were rated according to the following findings: 0: No adhesions connecting caecum to sidewall wound; 1: Filmy or stranded were separable by blunt dissection; 2: Cohesive adhesions attaching the caecum to the sidewall were separable by aggressive blunt dissection; 3: Adhesions inseparable without cutting, or without tearing/damaging caecum. Fractions were assigned where a variety of ratings seemed applicable.

## O=C1C=CC(=O)c2c(O)cccc21 [juglone]
[1]
  IC50: 0.5 to 1 µg/mL (≈ 2.87 to 5.74 µM)
[2]
  IC50: 4.3 µM
[3]
  IC50: 2 µM

## O=C1c2c(O)ccc(O)c2C(=O)c2c(NCCNCCO)ccc(NCCNCCO)c21 [mitoxantrone]
[4]
  caspase 3 activation in neutrophils: induced an increase in the activation of caspase 3 levels
[5]
  cytoplasmic DNA fragments in neutrophils: significant increase in cytoplasmic DNA

## COc1cc(/C=C/C(=O)CC(=O)/C=C/c2ccc(O)c(OC)c2)ccc1O [curcumin]
[6]
  surgical adhesion formation, in words: no inhibition of adhesion formation
[6]; listed as circumin
  surgical adhesion formation, in words: no inhibitory effect on surgical adhesion formation in rats

## COC(=O)[C@@H]1c2cc3c(c(O)c2[C@@H](O[C@@H]2O[C@@H](C)[C@H](OC)[C@@](C)(OC)[C@H]2OC)C[C@]1(C)O)C(=O)c1c(O)cc2c(c1C3=O)O[C@@H]1O[C@@]2(C)[C@H](O)[C@@H](N(C)C)[C@@H]1O [nogalamycin]
[4]
  caspase 3 activation in neutrophils: induced an increase in the activation of caspase 3 levels
